# According to US9669000B2, “Pharmaceutical compositions comprising lignans and their derivatives for treating hyperplastic diseases” (Universität Innsbruck, priority 2008, dated 2017):
# Read-outs that look alike come from different tables or passages of the source.
# Tests used:
# [1] = test system: human vascular smooth muscle cells (SMCs); assay: XTT cell proliferation assay, smooth muscle cells; type: cell-based; details: for IC50: XTT assay after 72 h, mean of three independent experiments, read-out: IC50, SMC proliferation-inhibitory activity
# Source text: Human umbilical vein endothelial cells (HUVECs) were isolated from umbilical cords (kindly donated by the Gynecology and Obstetrics Department, Innsbruck Medical University) by enzymatic detachment using collagenase, as previously described; see Bernhard, FASEB J 17(15), 2302-4 (2003). Human umbilical vein smooth muscle cells (SMCs) were isolated from the same umbilical cords according to Chamley-Campbell, Physiol Rev 59(1), 1-61 (1979). SMCs were routinely passaged in 0.2% gelatine-coated (Sigma, Steinheim, Germany) polystyrene culture flasks (Becton Dickinson, Meylan Cedex, France) in Medium 231 (Cascade Biologics, Paisley, UK). The isolation and analysis of human umbilical cord ECs and SMCs has been approved by the Ethics Committee of the Innsbruck Medical University.
# (§1) Cell proliferation was measured by the XTT cell proliferation assay (Biomol, Hamburg, Germany) as described by the manufacturer. The XTT assay is based on the ability of metabolic active cells to reduce the tetrazolium salt XTT to orange coloured compounds of formazan. The dye formed is water soluble and the dye intensity can be read at a given wavelength with a spectrophotometer. The intensity of the dye is proportional to the number of metabolic active cells. In addition to the XTT assay all proliferation-experiments were also evaluated by counting cells in a coulter counter.
# as §1, with “As described above (Example 1) cell” for “Cell”, “cells.” for “cells. In addition to the XTT assay all proliferation-experiments were also evaluated by counting cells in a coulter counter.”
# [2] = test system: SMCs; details: associated with upregulation of p21/WAF1; cited from earlier work
# [3] = test system: VCAM-1; details: ECs; cited from earlier work
# [4] = test system: SMCs; details: caspase-dependent manner; cited from earlier work
# [5] = test system: human vascular smooth muscle cells (SMCs); assay: Nuclear DNA content (cell cycle) analysis, SMCs; type: cell-based; details: 24 hours of incubation
# Experimental: In order to investigate the effect of leoligin on the cellular level, isolated primary human vascular smooth muscle cells (SMCs) were incubated with the indicated concentrations of leoligin for the indicated times. […] Values shown are mean values from a representative experiment performed in triplicates.
# (§2) For detection and/or quantification of cell death, forward/sideward light scattering analysis, the AnnexinV-propidium iodide method, and staining of nuclear DNA content (cell cycle analyses) were used as described; see Bernhard FASEB J 13(14), 1991-2001 (1999).
# [6] = test system: primary human vascular endothelial cells (ECs); assay: Cell viability by annexin V/propidium iodide method and FACS, ECs; type: cell-based; details: 48 hours
# Experimental: (§3) Primary human vascular endothelial cells (ECs) were incubated with the indicated concentrations of leoligin for the indicated times. […] Values shown are mean values from a representative experiment performed in triplicates. […] Values shown are mean values from three independent experiments+/−S.D. The impact of leoligin on TNFalpha-induced surface expression of VCAM-1, ICAM-1, and E-selectin (E-Sel) is shown in the three diagrams in FIG. 4C. Data shown are mean fluorescence intensities (MFI) of representative experiments. […] After protein preparation, total cellular proteins were separated on polyacrylamide gels, gel were dried and analysed by exposure to x-ray films.
# as §2
# [7] = test system: p27/KIP; assay: Western blot of p27/KIP in SMCs; type: cell-based, human; details: SMCs incubated 24 hours; shift from 27 kD to 58 kD signal
# Experimental: (§4) In order to investigate the effect of leoligin on the cellular level, isolated primary human vascular smooth muscle cells (SMCs) were incubated with the indicated concentrations of leoligin for the indicated times. […] Values shown are mean values from a representative experiment performed in triplicates. […] Values shown are mean values from three independent experiments+/−S.D. The histogram blots in FIG. 3C show the results from a DNA content analysis of control-treated or leoligin-treated SMCs after 24 hours of incubation (upper row, left histogram . . . solvent control; upper row, right histogram . . . leoligin).
# Western blotting was performed as previously described; see Bernhard, Cell Death Differ 8(10), 1014-21 (2001). Primary antibodies used were anti-p27/KIP-1 antibody (clone 57; BD Transduction Laboratories).
# [8] = test system: human vascular smooth muscle cells (SMCs); assay: Cell death by AnnexinV-propidium iodide method and FACS, SMCs; type: cell-based; details: after 48 hour
# Experimental: as §4, §2
# [9] = test system: primary human vascular endothelial cells (ECs); assay: XTT cell proliferation assay, endothelial cells; type: cell-based
# Source text: (§5) Values shown are mean values from a representative experiment performed in triplicates.
# [10] = test system: primary human vascular endothelial cells (ECs); assay: Metabolic protein labelling with 35S-methionine/cysteine in ECs; type: cell-based
# Experimental: as §3
# Metabolic labelling with ^35S-methionine/cysteine was performed as previously described (Bernhard (2001), loc. cit.).
# [11] = test system: venous bypass graft intimal hyperplasia; assay: Mouse model for vein graft disease (vena cava interposed into carotid artery); type: in vivo
# Experimental: Before wound closure after the transplantation, a peradventitial depot of 100 μl of 0.9% NaCl (control) or 100 μl of 100 μM leoligin in 0.9% NaCl were applied. After 4 weeks conduits were removed and subjected to morphometric analyses and to immunohistochemistry. FIG. 5B: the upper two images show a Elastica van Giesson stain of sections of the venous conduits. White arrows indicate neointimal thickness which was analysed by morphometry (see FIG. 5A). Central images display a staining for the endothelial cell CD31/PECAM-1 antigen (brown, black arrows) combined with a hematoxilin stain. […] The abbreviations “Lu” and “Li” stand for the full terms “lumen” and “liver”, respectively.
# In the applied mouse model the vena cava of a donor mouse was interposed into the carotid artery of a recipient mouse. After transplantation and prior to wound closure a 100 μl depot of 0.9% NaCl (control group) or 100 μM leoligin in 0.9% NaCl (leoligin group) was placed around the adventitia of the vein graft in the recipient mouse. 4 weeks after the intervention mice were sacrificed and the interposed venae cavae were harvested for analyses. […] For details on the surgical procedure see Schachner, Eur J Cardiothorac Surg 30(3), 451-63 (2006); Schachner, Heart Surg Forum 9(1), E515-E517 (2006). Animal experiments were approved by the Commission for Animal Testing Affairs of the Austrian Ministry for Science and Research.
# (§6) Following fixation in 4% paraformaldehyde and dehydration of tissues from organ culture and mouse experimentation, tissues were embedded in paraffin (venae cavae from the in vivo experiments were embedded into mouse liver prior to fixation) and sections were prepared. Immunohistochemistry was performed with the Accustain Elastica Stain (HT25) kit (Sigma-Aldrich, USA) or the En Vision+System-HRP (DAB) (DakoCytomation, Denmark) according to the manufacturers instructions. Primary antibodies used were anti-p27/KIP-1 antibody (clone 57; BD Transduction Laboratories), and anti-CD31/PECAM-1 antibody (clone JC70A, Dako Cytomation). Image analyses were performed using the Image J software of the National Institute of Health (USA).
# [12] = test system: VCAM-1; assay: FACS analysis of TNFalpha-induced surface adhesion molecule expression on ECs; type: cell-based, human
# Source text: as §5
# [13] = test system: human saphenous veins; assay: Human saphenous vein organ culture model of intimal hyperplasia; details: added freshly every second day over 2 weeks
# Experimental: as §6
# [14] = test system: intimal hyperplasia after balloon injury; details: in vivo; cited from earlier work
# [15] = 100 μl of 100 μM leoligin, 4 weeks
structure (smiles),measurement,setting,value
"C/C=C(/C)C(=O)OC[C@H]1[C@@H](Cc2cc(OC)c(OC)c(OC)c2)CO[C@@H]1c1cc(OC)c(OC)c(OC)c1 [5,5′-dimethoxy-leoligin]",IC50,[1]; Homo sapiens,48.6 µM
C/C=C(/C)C(=O)OC[C@H]1[C@@H](Cc2ccc(O)c(OC)c2)CO[C@@H]1c1cc(OC)c(OC)c(OC)c1 [5-methoxy-leoligin],IC50,[1]; Homo sapiens,45.9 µM
C/C=C(/C)C(=O)OC[C@H]1[C@@H](Cc2ccc(OC)c(OC)c2)CO[C@@H]1c1cc(OC)c(OC)c(OC)c1 [5-methoxy-leoligin],IC50,[1],45.9 µM
"C=CCc1ccc(O)c(-c2ccc(O)c(CC=C)c2)c1 [Honokiol, honokiol]",cell cycle in SMCs,[2],arrest in the G1 phase of the cell cycle
"C=CCc1ccc(O)c(-c2cc(CC=C)ccc2O)c1 [Magnolol, magnolol]",TNFalpha-mediated VCAM-1 expression,[3],inhibit TNFalpha-mediated VCAM-1 expression
same,cell death in SMCs,[4],induce cell death in SMCs
"COc1cc(C[C@H]2CO[C@H](c3ccc(O)c(OC)c3)[C@H]2CO)ccc1O [lariciresinol, reference compound]",IC50,[1]; Homo sapiens,> 100 µM
C/C=C(/C)C(=O)OC[C@H]1[C@@H](Cc2ccc(OC)c(OC)c2)CO[C@@H]1c1ccc(OC)c(OC)c1 [leoligin],cell cycle distribution (nuclear DNA content),[5],massive accumulation of cells in the G1-phase
same,toxic or cell death-inducing effect on ECs,[6],no toxic or cell death-inducing effect
same,p27/KIP protein (Western blot),[7],complete change in the appearance of p27/KIP protein
same,cell death (apoptosis and necrosis) in SMCs,[8],only a marginal increase in cell death
same,proliferation of ECs,[9],inhibited the proliferation of ECs
same,protein synthesis in ECs,[10],does not block protein synthesis
same,endothelial layer (CD31 staining) of conduits,[11]; [15],intact
same,neointimal thickness of vein grafts,[11]; [15],significantly reduced neointimal thickness
same,p27/KIP staining of graft sections,[11]; four weeks after the application,stained positive for p27/KIP
same,animals with no blood flow due to thromboses after 4 weeks,[11]; of 7 animals per group (3 in control),2
same,intimal hyperplasia in vivo,"[11]; periadvential reservoir 100 μl of 100 μM leoligin in 0.9% NaCl, 4 weeks",potently inhibited intimal hyperplasia in vivo
same,TNFalpha-mediated surface expression of VCAM-1,[12],inhibited TNFalpha-mediated surface expression of VCAM-1
same,intimal hyperplasia of saphenous veins in organ culture,"[13]; 5 μM leoligin, p=0.003",completely inhibited intimal hyperplasia
same,pre-existing intimal hyperplasia of saphenous veins in organ culture,"[13]; 50 μM leoligin, p<0.001",even reversed pre-existing intimal hyperplasia
same,IC50,[1]; Homo sapiens,54.5 µM
same,"SMC proliferation (XTT assay, cell counting)",[1]; result in words,significant SMC proliferation inhibitory effect
COc1cc([C@@H]2c3cc4c(cc3[C@H](O)[C@H]3COC(=O)[C@@H]23)OCO4)cc(OC)c1OC [picropodophyllin],intimal hyperplasia after balloon injury,[14],inhibits intimal hyperplasia after balloon injury in vivo
